Source: patent US20050255537A1, “Method for monitoring treatment with a parathyroid hormone” (priority 1999, published 2005)

How the values were obtained:
[1] = tested on: BSAP and PICP serum levels, NTX urine levels; assay: Example 3 clinical trial of rhPTH(1-34) vs alendronate: bone markers; format: in vivo, human; conditions: 40 μg/day PTH
Method: • Number of Subjects: • rhPTH(1-34): 73 enrolled, 51 finished. • Alendronate (Fosamax®): 73 enrolled, 57 finished. • Diagnosis and Inclusion Criteria: Women aged 65±8 years, postmenopausal for 19±19 years, selected for a baseline spine bone mineral density of 0.8±0.1 and a T value of −2.2. Dosage and Administration: • Test Product (blinded) • rhPTH(1-34): 40 μg/day, given subcutaneously • Reference (Control) Therapy (blinded) • Alendronate (Fosamax®): 10 mg per patient per day • Duration of Treatment: • rhPTH(1-34): 12-18 months, with follow up from time of withdrawal of drug to 18 months of study. • Alendronate: 12-18 months, with follow up from time of withdrawal of drug to 18 months of study. • Criteria for Evaluation: Spine x-ray, serum biological markers (calcium, bone-specific alkaline phosphatase, procollagen I carboxy-terminal propeptide); urine makers (calcium, N-telopeptide, fir deoxypyridinoline); 1,25-dihydroxyvitamin D; bone mineral density spine, hip, wrist, and total body.
Measures of BSAP, PICP, and NTX levels were determined for each patient through the course of therapy generally according to methods described above in Example 1.

postmenopausal women = assay: Pharmacokinetic/pharmacodynamic sigmoid Emax models (spine BMD, femoral neck BMD, PICP); format: in vivo, human
From the text: In order to explore the relationship between concentration and the effect on spine BMD, a pharmacokinetic/pharmacodynamic model was developed. This relationship was best described by a sigmoid Emax model with AUC50 estimated at 170 pg·hr/mL.
A pharmacokinetic/pharmacodynamic model was also developed for femoral neck BMD. The relationship was best described by a sigmoid Emax model with AUC50 estimated at 283 pg·hr/mL. […] Thus, the final pharmacodynamic model which included treatment group rather than systemic exposure, predicted the increase in hip BMD in a patient of average age (˜69 years), body weight (˜66 kg), and baseline NTX concentration (˜48 mmBCE/L) to be approximately 2.8% and 5.2% after 21 months of 20 μg/day and 40 μg/day therapy, respectively.
A pharmacokinetic/pharmacodynamic model was developed for the PICP response. […] Thus, LY333334 exposure was a less significant predictor of elevation in PICP concentrations than administered dose.

[2] = about 5-6 weeks following termination (18 months)

CC[C@H](C)[C@H](NC(=O)[C@H](CCC(=O)O)NC(=O)[C@H](CO)NC(=O)[C@@H](NC(=O)[C@@H](N)CO)C(C)C)C(=O)N[C@@H](CCC(N)=O)C(=O)N[C@@H](CC(C)C)C(=O)N[C@@H](CCSC)C(=O)N[C@@H](Cc1cnc[nH]1)C(=O)N[C@@H](CC(N)=O)C(=O)N[C@@H](CC(C)C)C(=O)NCC(=O)N[C@@H](CCCCN)C(=O)N[C@@H](Cc1cnc[nH]1)C(=O)N[C@@H](CC(C)C)C(=O)N[C@@H](CC(N)=O)C(=O)N[C@@H](CO)C(=O)N[C@@H](CCSC)C(=O)N[C@@H](CCC(=O)O)C(=O)N[C@@H](CCCN=C(N)N)C(=O)N[C@H](C(=O)N[C@@H](CCC(=O)O)C(=O)N[C@@H](Cc1c[nH]c2ccccc12)C(=O)N[C@@H](CC(C)C)C(=O)N[C@@H](CCCN=C(N)N)C(=O)N[C@@H](CCCCN)C(=O)N[C@@H](CCCCN)C(=O)N[C@@H](CC(C)C)C(=O)N[C@@H](CCC(N)=O)C(=O)N[C@@H](CC(=O)O)C(=O)N[C@H](C(=O)N[C@@H](Cc1cnc[nH]1)C(=O)N[C@@H](CC(N)=O)C(=O)N[C@@H](Cc1ccccc1)C(=O)O)C(C)C)C(C)C [LY333334]
BSAP level after termination of PTH treatment ([1]; (18 months)): BSAP remained at an elevated level
percent change in PICP serum levels during treatment ([1]; FIG. 8): reached a peak within about one or two months
percent change in NTX urine levels during treatment ([1]; FIG. 9): increased steadily until about 12 months after treatment initiation
NTX levels after termination of PTH treatment [1, 2]: had declined but remained elevated compared to pretreatment levels
PICP levels after termination of PTH treatment [1, 2]: PICP levels were the same pre-treatment levels
increase in PICP concentration at 1 month as % of the maximum effect (postmenopausal women; 20 μg dose): 70%
increase in femoral neck BMD as % of the maximum effect (postmenopausal women; 20 μg dose): 56%
increase in spine BMD as % of the maximum effect (postmenopausal women; 20 μg dose): 82%
increase in PICP concentration at 1 month as % of the maximum effect (postmenopausal women; 40 μg dose): 85%
increase in femoral neck BMD as % of the maximum effect (postmenopausal women; 40 μg dose): 67%
increase in spine BMD as % of the maximum effect (postmenopausal women; 40 μg dose): 92%
AUC50, sigmoid Emax model for PICP response (postmenopausal women; PICP): 239 pg·h/mL
AUC50, sigmoid Emax model for femoral neck BMD (postmenopausal women; femoral neck BMD): 283 pg·h/mL
AUC50, sigmoid Emax model for spine BMD (postmenopausal women; spine BMD): 170 pg·h/mL
